# Results reported in PubChem BioAssay (NCI).
#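 Tested at 5 concentrations; 48 h exposure; 96-well plates; endpoints linearly interpolated, else capped at highest concentration. At the TGI there is no net growth.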
# Legend:
# Experiment in all cases: NCI-60 cell line screen, 48 h
# OVCAR-3 ovarian = system: OVCAR-3 ovarian
# EKVX NSCLC = system: EKVX NSCLC
# BT-549 breast = system: BT-549 breast
# SR leukemia = system: SR leukemia
# IGROV1 ovarian = system: IGROV1 ovarian
# TK-10 renal = system: TK-10 renal
# CAKI-1 renal = system: CAKI-1 renal
# OVCAR-5 ovarian = system: OVCAR-5 ovarian
# MCF7 breast = system: MCF7 breast
# DU-145 prostate = system: DU-145 prostate
# HOP-62 NSCLC = system: HOP-62 NSCLC
# SW-620 colon = system: SW-620 colon
# U251 CNS = system: U251 CNS
# OVCAR-8 ovarian = system: OVCAR-8 ovarian
# RXF 393 renal = system: RXF 393 renal
# NCI-H226 lung = system: NCI-H226 lung
# 786-0 renal = system: 786-0 renal
# MDA-MB-435 = system: MDA-MB-435
# UACC-257 melanoma = system: UACC-257 melanoma
# COLO 205 colon = system: COLO 205 colon
# K-562 leukemia = system: K-562 leukemia
# NCI-H460 lung = system: NCI-H460 lung
# NCI-H23 lung = system: NCI-H23 lung
# UACC-62 melanoma = system: UACC-62 melanoma
# HS 578T breast = system: HS 578T breast
# NCI/ADR-RES ovarian = system: NCI/ADR-RES ovarian
# LOX IMVI melanoma = system: LOX IMVI melanoma
# KM12 colon = system: KM12 colon
# SNB-19 CNS = system: SNB-19 CNS
# RPMI-8226 leukemia = system: RPMI-8226 leukemia
# SK-MEL-2 melanoma = system: SK-MEL-2 melanoma
# HCT-116 colon = system: HCT-116 colon
# MDA-N = system: MDA-N
# A498 renal = system: A498 renal
# MDA-MB-231 breast = system: MDA-MB-231 breast
# SF-268 CNS = system: SF-268 CNS
# HCT-15 colon = system: HCT-15 colon
# HT29 colon = system: HT29 colon
# PC-3 prostate = system: PC-3 prostate
# SK-OV-3 ovarian = system: SK-OV-3 ovarian
# CCRF-CEM leukemia = system: CCRF-CEM leukemia
# SN12C renal = system: SN12C renal
# SF-295 CNS = system: SF-295 CNS
# M14 melanoma = system: M14 melanoma
# SF-539 CNS = system: SF-539 CNS
# SK-MEL-5 melanoma = system: SK-MEL-5 melanoma
# MOLT-4 leukemia = system: MOLT-4 leukemia
# ACHN renal = system: ACHN renal
# SK-MEL-28 melanoma = system: SK-MEL-28 melanoma
# HL-60(TB) leukemia = system: HL-60(TB) leukemia
# MALME-3M melanoma = system: MALME-3M melanoma
# T-47D breast = system: T-47D breast
# A549 NSCLC = system: A549 NSCLC
# NCI-H522 lung = system: NCI-H522 lung
# SNB-75 CNS = system: SNB-75 CNS
# HOP-92 NSCLC = system: HOP-92 NSCLC
# UO-31 renal = system: UO-31 renal
# HCC-2998 colon = system: HCC-2998 colon
# OVCAR-4 ovarian = system: OVCAR-4 ovarian
smiles,measurement,setting,value
Cn1c(=O)sc2cc(C(=S)N3CCC(Cc4ccccc4)CC3)ccc21,TGI,OVCAR-3 ovarian,> 100 µM
same,TGI,EKVX NSCLC,> 100 µM
same,TGI,BT-549 breast,> 100 µM
same,TGI,SR leukemia,> 100 µM
same,TGI,IGROV1 ovarian,> 100 µM
same,TGI,TK-10 renal,> 100 µM
same,TGI,CAKI-1 renal,> 100 µM
same,TGI,OVCAR-5 ovarian,> 100 µM
same,TGI,MCF7 breast,> 100 µM
same,TGI,DU-145 prostate,> 100 µM
same,TGI,HOP-62 NSCLC,> 100 µM
same,TGI,SW-620 colon,> 100 µM
same,TGI,U251 CNS,78.1 µM
same,TGI,OVCAR-8 ovarian,> 100 µM
same,TGI,RXF 393 renal,> 100 µM
same,TGI,NCI-H226 lung,> 100 µM
same,TGI,786-0 renal,> 100 µM
same,TGI,MDA-MB-435,> 100 µM
same,TGI,UACC-257 melanoma,> 100 µM
same,TGI,COLO 205 colon,> 100 µM
same,TGI,K-562 leukemia,> 100 µM
same,TGI,NCI-H460 lung,> 100 µM
same,TGI,NCI-H23 lung,> 100 µM
same,TGI,UACC-62 melanoma,> 100 µM
same,TGI,HS 578T breast,> 100 µM
same,TGI,NCI/ADR-RES ovarian,> 100 µM
same,TGI,LOX IMVI melanoma,> 100 µM
same,TGI,KM12 colon,> 100 µM
same,TGI,SNB-19 CNS,> 100 µM
same,TGI,RPMI-8226 leukemia,> 100 µM
same,TGI,SK-MEL-2 melanoma,> 100 µM
same,TGI,HCT-116 colon,> 100 µM
same,TGI,MDA-N,> 100 µM
same,TGI,A498 renal,> 100 µM
same,TGI,MDA-MB-231 breast,> 100 µM
same,TGI,SF-268 CNS,> 100 µM
same,TGI,HCT-15 colon,> 100 µM
same,TGI,HT29 colon,> 100 µM
same,TGI,PC-3 prostate,> 100 µM
same,TGI,SK-OV-3 ovarian,> 100 µM
same,TGI,CCRF-CEM leukemia,> 100 µM
same,TGI,SN12C renal,> 100 µM
same,TGI,SF-295 CNS,> 100 µM
same,TGI,M14 melanoma,> 100 µM
same,TGI,SF-539 CNS,> 100 µM
same,TGI,SK-MEL-5 melanoma,> 100 µM
same,TGI,MOLT-4 leukemia,> 100 µM
same,TGI,ACHN renal,> 100 µM
same,TGI,SK-MEL-28 melanoma,> 100 µM
same,TGI,HL-60(TB) leukemia,> 100 µM
Cc1cc(C(C)(C)C)cc(CNC2CCCCC2)c1O,TGI,OVCAR-3 ovarian,34.2 µM
same,TGI,EKVX NSCLC,31.4 µM
same,TGI,BT-549 breast,30 µM
same,TGI,SR leukemia,53.6 µM
same,TGI,MALME-3M melanoma,27.8 µM
same,TGI,IGROV1 ovarian,26.9 µM
same,TGI,TK-10 renal,29.7 µM
same,TGI,CAKI-1 renal,35.7 µM
same,TGI,OVCAR-5 ovarian,31.9 µM
same,TGI,MCF7 breast,32.3 µM
same,TGI,DU-145 prostate,37.6 µM
same,TGI,HOP-62 NSCLC,47.6 µM
same,TGI,T-47D breast,32.8 µM
same,TGI,SW-620 colon,40.4 µM
same,TGI,U251 CNS,29.9 µM
same,TGI,OVCAR-8 ovarian,31 µM
same,TGI,RXF 393 renal,12.6 µM
same,TGI,A549 NSCLC,33.8 µM
same,TGI,NCI-H522 lung,25.2 µM
same,TGI,786-0 renal,30 µM
same,TGI,MDA-MB-435,43.4 µM
same,TGI,UACC-257 melanoma,28.4 µM
same,TGI,COLO 205 colon,31.5 µM
same,TGI,K-562 leukemia,51.3 µM
same,TGI,SNB-75 CNS,26 µM
same,TGI,NCI-H460 lung,28.4 µM
same,TGI,HOP-92 NSCLC,29.3 µM
same,TGI,NCI-H23 lung,29.2 µM
same,TGI,UACC-62 melanoma,29.6 µM
same,TGI,HS 578T breast,48.7 µM
same,TGI,UO-31 renal,28.2 µM
same,TGI,NCI/ADR-RES ovarian,31.2 µM
same,TGI,LOX IMVI melanoma,29.5 µM
same,TGI,KM12 colon,46.3 µM
same,TGI,SNB-19 CNS,31.9 µM
same,TGI,RPMI-8226 leukemia,45.5 µM
same,TGI,SK-MEL-2 melanoma,34 µM
same,TGI,HCT-116 colon,28.8 µM
same,TGI,MDA-N,29.9 µM
same,TGI,A498 renal,30.3 µM
same,TGI,MDA-MB-231 breast,32.9 µM
same,TGI,SF-268 CNS,30.3 µM
same,TGI,HCC-2998 colon,10.4 µM
same,TGI,HCT-15 colon,31.4 µM
same,TGI,HT29 colon,33.7 µM
same,TGI,PC-3 prostate,31 µM
same,TGI,SK-OV-3 ovarian,41.9 µM
same,TGI,OVCAR-4 ovarian,51.5 µM
same,TGI,CCRF-CEM leukemia,91 µM
same,TGI,SN12C renal,29.5 µM
same,TGI,SF-295 CNS,31.7 µM
same,TGI,M14 melanoma,29.4 µM
same,TGI,SF-539 CNS,33 µM
same,TGI,SK-MEL-5 melanoma,30.9 µM
same,TGI,MOLT-4 leukemia,92.4 µM
same,TGI,ACHN renal,31 µM
same,TGI,SK-MEL-28 melanoma,30.9 µM
O=c1cn[nH]c(=S)n1/N=C/c1c[nH]c2ccccc12,TGI,OVCAR-3 ovarian,> 100 µM
same,TGI,EKVX NSCLC,> 100 µM
same,TGI,BT-549 breast,> 100 µM
same,TGI,SR leukemia,> 100 µM
same,TGI,MALME-3M melanoma,> 100 µM
same,TGI,IGROV1 ovarian,31.8 µM
same,TGI,CAKI-1 renal,> 100 µM
same,TGI,OVCAR-5 ovarian,> 100 µM
same,TGI,MCF7 breast,> 100 µM
same,TGI,DU-145 prostate,> 100 µM
same,TGI,HOP-62 NSCLC,> 100 µM
same,TGI,SW-620 colon,> 100 µM
same,TGI,U251 CNS,> 100 µM
same,TGI,OVCAR-8 ovarian,93.9 µM
same,TGI,A549 NSCLC,> 100 µM
same,TGI,NCI-H522 lung,> 100 µM
same,TGI,786-0 renal,> 100 µM
same,TGI,MDA-MB-435,> 100 µM
same,TGI,UACC-257 melanoma,> 100 µM
same,TGI,COLO 205 colon,> 100 µM
same,TGI,K-562 leukemia,> 100 µM
same,TGI,NCI-H460 lung,> 100 µM
same,TGI,UACC-62 melanoma,> 100 µM
same,TGI,HS 578T breast,> 100 µM
same,TGI,UO-31 renal,> 100 µM
same,TGI,NCI/ADR-RES ovarian,> 100 µM
same,TGI,LOX IMVI melanoma,93.2 µM
same,TGI,KM12 colon,> 100 µM
same,TGI,SNB-19 CNS,> 100 µM
same,TGI,RPMI-8226 leukemia,> 100 µM
same,TGI,SK-MEL-2 melanoma,> 100 µM
same,TGI,HCT-116 colon,> 100 µM
same,TGI,MDA-N,> 100 µM
same,TGI,A498 renal,> 100 µM
same,TGI,SF-268 CNS,> 100 µM
same,TGI,HCC-2998 colon,> 100 µM
same,TGI,HCT-15 colon,> 100 µM
same,TGI,HT29 colon,> 100 µM
same,TGI,PC-3 prostate,> 100 µM
same,TGI,SK-OV-3 ovarian,> 100 µM
same,TGI,OVCAR-4 ovarian,> 100 µM
same,TGI,CCRF-CEM leukemia,30.3 µM
same,TGI,SF-295 CNS,> 100 µM
same,TGI,M14 melanoma,> 100 µM
same,TGI,SF-539 CNS,> 100 µM
same,TGI,SK-MEL-5 melanoma,> 100 µM
same,TGI,MOLT-4 leukemia,> 100 µM
same,TGI,ACHN renal,> 100 µM
same,TGI,SK-MEL-28 melanoma,> 100 µM
same,TGI,HL-60(TB) leukemia,49.5 µM
FC(F)(Sc1ncc[nH]1)c1nc2ccccc2o1,TGI,OVCAR-3 ovarian,> 100 µM
same,TGI,BT-549 breast,> 100 µM
same,TGI,SR leukemia,> 100 µM
same,TGI,MALME-3M melanoma,> 100 µM
same,TGI,IGROV1 ovarian,> 100 µM
same,TGI,TK-10 renal,> 100 µM
same,TGI,CAKI-1 renal,> 100 µM
same,TGI,OVCAR-5 ovarian,> 100 µM
same,TGI,MCF7 breast,> 100 µM
same,TGI,DU-145 prostate,> 100 µM
same,TGI,HOP-62 NSCLC,> 100 µM
same,TGI,T-47D breast,> 100 µM
same,TGI,SW-620 colon,> 100 µM
same,TGI,U251 CNS,> 100 µM
same,TGI,OVCAR-8 ovarian,> 100 µM
same,TGI,RXF 393 renal,> 100 µM
same,TGI,A549 NSCLC,> 100 µM
same,TGI,NCI-H226 lung,> 100 µM
same,TGI,NCI-H522 lung,> 100 µM
same,TGI,786-0 renal,> 100 µM
same,TGI,MDA-MB-435,> 100 µM
same,TGI,UACC-257 melanoma,> 100 µM
same,TGI,COLO 205 colon,> 100 µM
same,TGI,K-562 leukemia,> 100 µM
same,TGI,SNB-75 CNS,> 100 µM
same,TGI,NCI-H460 lung,> 100 µM
same,TGI,HOP-92 NSCLC,> 100 µM
same,TGI,NCI-H23 lung,> 100 µM
same,TGI,UACC-62 melanoma,> 100 µM
same,TGI,HS 578T breast,> 100 µM
same,TGI,UO-31 renal,> 100 µM
same,TGI,NCI/ADR-RES ovarian,> 100 µM
same,TGI,KM12 colon,> 100 µM
same,TGI,RPMI-8226 leukemia,> 100 µM
same,TGI,SK-MEL-2 melanoma,> 100 µM
same,TGI,HCT-116 colon,> 100 µM
same,TGI,MDA-N,> 100 µM
same,TGI,A498 renal,> 100 µM
same,TGI,MDA-MB-231 breast,> 100 µM
same,TGI,SF-268 CNS,> 100 µM
same,TGI,HCC-2998 colon,> 100 µM
same,TGI,HCT-15 colon,> 100 µM
same,TGI,HT29 colon,> 100 µM
same,TGI,PC-3 prostate,> 100 µM
same,TGI,SK-OV-3 ovarian,> 100 µM
same,TGI,OVCAR-4 ovarian,> 100 µM
same,TGI,CCRF-CEM leukemia,> 100 µM
same,TGI,SN12C renal,> 100 µM
same,TGI,SF-295 CNS,> 100 µM
same,TGI,M14 melanoma,> 100 µM
same,TGI,SF-539 CNS,> 100 µM
same,TGI,SK-MEL-5 melanoma,> 100 µM
same,TGI,MOLT-4 leukemia,> 100 µM
same,TGI,ACHN renal,> 100 µM
same,TGI,SK-MEL-28 melanoma,> 100 µM
